A compilation of properties of binary mixtures (doi:10.1016/j.fluid.2019.112324)

Test: xn = mol fraction of the nth substance listed
Settings: 100 kPa

Question: What does the source list for `CCCCCC[n+]1ccn(C)c1.O=[N+]([O-])[O-]` + CCCC(C)O?
Answer: viscosity (293.15 K, x1 = 0.0814): 8.28 mPa·s; viscosity (293.15 K, x1 = 0.1609): 14.69 mPa·s; viscosity (293.15 K, x1 = 0.3491): 42.8 mPa·s; viscosity (293.15 K, x1 = 0.4393): 69 mPa·s; viscosity (293.15 K, x1 = 0.5608): 122.5 mPa·s; viscosity (293.15 K, x1 = 0.6509): 177 mPa·s; viscosity (293.15 K, x1 = 0.9393): 614 mPa·s; viscosity (293.15 K, x1 = 1): 804 mPa·s; viscosity (298.15 K, x1 = 0.0814): 6.18 mPa·s; viscosity (298.15 K, x1 = 0.2408): 16.18 mPa·s; viscosity (298.15 K, x1 = 0.3491): 29 mPa·s; viscosity (298.15 K, x1 = 0.4393): 44.8 mPa·s; viscosity (298.15 K, x1 = 0.5608): 79.4 mPa·s; viscosity (298.15 K, x1 = 0.6509): 117.2 mPa·s; viscosity (298.15 K, x1 = 0.7401): 173.4 mPa·s; viscosity (298.15 K, x1 = 0.8508): 285 mPa·s; viscosity (298.15 K, x1 = 0.9393): 416 mPa·s; viscosity (298.15 K, x1 = 1): 545 mPa·s; viscosity (303.15 K, x1 = 0.1609): 7.26 mPa·s; viscosity (303.15 K, x1 = 0.2408): 11.09 mPa·s; viscosity (303.15 K, x1 = 0.3491): 19.05 mPa·s; viscosity (303.15 K, x1 = 0.4393): 29.4 mPa·s; viscosity (303.15 K, x1 = 0.5608): 50.9 mPa·s; viscosity (303.15 K, x1 = 0.6509): 76.9 mPa·s; viscosity (303.15 K, x1 = 0.8508): 189 mPa·s; viscosity (303.15 K, x1 = 0.9393): 282 mPa·s; viscosity (303.15 K, x1 = 1): 369 mPa·s; viscosity (308.15 K, x1 = 0.0814): 3.48 mPa·s; viscosity (308.15 K, x1 = 0.1609): 5.08 mPa·s; viscosity (308.15 K, x1 = 0.2408): 7.43 mPa·s; viscosity (308.15 K, x1 = 0.3491): 12.22 mPa·s; viscosity (308.15 K, x1 = 0.4393): 18.45 mPa·s; viscosity (308.15 K, x1 = 0.5608): 32 mPa·s; viscosity (308.15 K, x1 = 0.6509): 49.3 mPa·s; viscosity (308.15 K, x1 = 0.8508): 125.3 mPa·s; viscosity (308.15 K, x1 = 0.9393): 195 mPa·s; viscosity (308.15 K, x1 = 1): 258 mPa·s; viscosity (313.15 K, x1 = 0.1609): 3.72 mPa·s; viscosity (313.15 K, x1 = 0.2408): 5.31 mPa·s; viscosity (313.15 K, x1 = 0.3491): 8.55 mPa·s; viscosity (313.15 K, x1 = 0.4393): 12.22 mPa·s; viscosity (313.15 K, x1 = 0.5608): 21.2 mPa·s; viscosity (313.15 K, x1 = 0.6509): 33 mPa·s; viscosity (313.15 K, x1 = 0.7401): 50.1 mPa·s; viscosity (313.15 K, x1 = 0.8508): 85.7 mPa·s; viscosity (313.15 K, x1 = 0.9393): 136.2 mPa·s; viscosity (313.15 K, x1 = 1): 186 mPa·s; viscosity (318.15 K, x1 = 0.0814): 2.12 mPa·s; viscosity (318.15 K, x1 = 0.1609): 2.81 mPa·s; viscosity (318.15 K, x1 = 0.2408): 3.76 mPa·s; viscosity (318.15 K, x1 = 0.3491): 5.85 mPa·s; viscosity (318.15 K, x1 = 0.4393): 8.65 mPa·s; viscosity (318.15 K, x1 = 0.5608): 14.52 mPa·s; viscosity (318.15 K, x1 = 0.6509): 22.4 mPa·s; viscosity (318.15 K, x1 = 0.7401): 34.9 mPa·s; viscosity (318.15 K, x1 = 0.8508): 61.8 mPa·s; viscosity (318.15 K, x1 = 0.9393): 99.7 mPa·s; viscosity (318.15 K, x1 = 1): 140.2 mPa·s; viscosity (323.15 K, x1 = 0.1609): 2.11 mPa·s; viscosity (323.15 K, x1 = 0.2408): 2.74 mPa·s; viscosity (323.15 K, x1 = 0.3491): 4.09 mPa·s; viscosity (323.15 K, x1 = 0.4393): 6.05 mPa·s; viscosity (323.15 K, x1 = 0.5608): 10.28 mPa·s; viscosity (323.15 K, x1 = 0.7401): 25.8 mPa·s; viscosity (323.15 K, x1 = 0.8508): 47.3 mPa·s; viscosity (323.15 K, x1 = 0.9393): 76.9 mPa·s

Question: For `CCCC(C)O` (configuration not stated) + CCCCCC[n+]1ccn(C)c1.O=[N+]([O-])[O-], which viscosity (293.15 K, x2 = 0) is on record?
Answer: 3.97 mPa·s

Question: And the viscosity (298.15 K, x2 = 0)?
Answer: 3.32 mPa·s

Question: And the viscosity (303.15 K, x2 = 0)?
Answer: 2.81 mPa·s

Question: What about the viscosity (308.15 K, x2 = 0) of the same compound?
Answer: 2.37 mPa·s

Question: What about the viscosity (313.15 K, x2 = 0) of the same compound?
Answer: 1.99 mPa·s

Question: And the viscosity (318.15 K, x2 = 0)?
Answer: 1.66 mPa·s
